Reference: PubChem BioAssay (NCI)
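Exposure lasted 48 hours, with cells grown in 96-well plates and compounds tested at five concentrations. At the GI50, growth is halved. TGI denotes the concentration required for complete inhibition of growth.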

What was measured:
Experiment in all cases: growth of human tumour cells (NCI), 48 h
[1] = system: HCC-2998 colon
[2] = system: SW-620 colon
[3] = system: SK-MEL-28 melanoma
[4] = system: HL-60(TB) leukemia
[5] = system: COLO 205 colon
[6] = system: HT29 colon
[7] = system: NCI-H226 lung
[8] = system: K-562 leukemia
[9] = system: NCI/ADR-RES ovarian
[10] = system: SF-539 CNS

Q: Which GI50 [1] does the source give for `Cc1ccc(/C=C2\CN(C(=O)OC(C)(C)C)C/C(=C\c3ccc(C)cc3)C2=O)cc1` here?
A: 0.268 µM

Q: What about the TGI [1] of the same compound?
A: 0.927 µM

Q: And the GI50 [2]?
A: 0.437 µM

Q: What about the TGI [2] of the same compound?
A: > 100 µM

Q: What about the GI50 [3] of the same compound?
A: 11.6 µM

Q: And the TGI [3]?
A: > 100 µM

Q: What about the GI50 [4] of the same compound?
A: 0.0409 µM

Q: What about the TGI [4] of the same compound?
A: 0.473 µM

Q: What about the GI50 [5] of the same compound?
A: 0.597 µM

Q: What about the TGI [5] of the same compound?
A: 4.08 µM

Q: What about the GI50 [6] of the same compound?
A: 0.46 µM

Q: What about the TGI [6] of the same compound?
A: > 40.7 µM

Q: What about the TGI [7] of the same compound?
A: > 100 µM

Q: What about the GI50 [8] of the same compound?
A: 0.332 µM

Q: And the TGI [8]?
A: > 100 µM

Q: What about the GI50 [9] of the same compound?
A: 0.281 µM

Q: And the TGI [9]?
A: > 100 µM

Q: What does the source list for `CC1(C)SC2C(NC(=O)C(N)c3ccccc3)C(=O)N2C1C(=O)O` (stereo not drawn)?
A: TGI [1]: > 100 µM; TGI [2]: > 100 µM; TGI [3]: > 100 µM; TGI [4]: > 100 µM; TGI [10]: > 100 µM; TGI [5]: > 100 µM; TGI [6]: > 100 µM; TGI [9]: > 100 µM

Q: For `CC(=O)NC(CCCNCc1ccccc1)C(=O)NCc1ccccc1` (stereo not drawn), which TGI [1] is on record?
A: > 100 µM

Q: And the TGI [2]?
A: > 100 µM

Q: And the TGI [3]?
A: > 100 µM

Q: What about the TGI [10] of the same compound?
A: > 100 µM

Q: What about the TGI [5] of the same compound?
A: > 100 µM

Q: What about the TGI [6] of the same compound?
A: > 100 µM

Q: And the TGI [7]?
A: > 100 µM

Q: And the TGI [8]?
A: > 100 µM

Q: `Cc1cc(N(CCC#N)S(=O)(=O)c2ccccc2)ccc1/C=C1N=C(/C=C/c2ccccc2)OC\1=O` was tested. Which TGI [1] did it give?
A: > 100 µM

Q: And the TGI [2]?
A: > 100 µM

Q: What about the TGI [3] of the same compound?
A: > 100 µM

Q: And the TGI [4]?
A: > 100 µM

Q: And the TGI [10]?
A: > 100 µM

Q: And the TGI [5]?
A: > 100 µM

Q: And the TGI [6]?
A: > 100 µM

Q: What about the TGI [7] of the same compound?
A: > 100 µM

Q: And the TGI [8]?
A: > 100 µM

Q: How did the TGI [1] turn out when `N#C/C(=C1\OC(=O)C(c2ccc(Br)cc2)=C1O)c1ccc(Br)cc1` was run?
A: 28.9 µM

Q: And the TGI [2]?
A: 27.3 µM

Q: And the TGI [3]?
A: 31.7 µM

Q: What about the TGI [4] of the same compound?
A: 44.6 µM

Q: And the TGI [10]?
A: 30 µM

Q: And the TGI [5]?
A: 34.5 µM

Q: And the TGI [6]?
A: 34.5 µM

Q: And the TGI [7]?
A: 34 µM

Q: What about the TGI [8] of the same compound?
A: 61.7 µM

Q: With `COc1cccc(NC(=O)CC(=O)N2N=C(N(CCC#N)c3ccc(Cl)cc3)CC2c2ccccc2)c1` (stereo not drawn) as the compound, how does the TGI [1] read?
A: > 100 µM

Q: What about the TGI [2] of the same compound?
A: > 100 µM

Q: And the TGI [3]?
A: > 100 µM

Q: And the TGI [4]?
A: > 100 µM

Q: And the TGI [10]?
A: > 100 µM

Q: And the TGI [5]?
A: > 100 µM

Q: What about the TGI [6] of the same compound?
A: > 100 µM

Q: And the TGI [7]?
A: > 100 µM

Q: And the TGI [8]?
A: > 100 µM

Q: With `CCCCCCCCCCCCOC(=S)NCCCC` as the compound, how does the TGI [1] read?
A: 34 µM

Q: And the TGI [2]?
A: 35.5 µM

Q: What about the TGI [3] of the same compound?
A: 90.9 µM

Q: And the TGI [4]?
A: 43.1 µM

Q: What about the TGI [10] of the same compound?
A: 48.5 µM

Q: And the TGI [6]?
A: 38.1 µM

Q: What about the TGI [7] of the same compound?
A: 45.1 µM

Q: And the TGI [8]?
A: 41.3 µM

Q: Which results are given for `c1cc(-c2cn3ccsc3n2)ccn1`?
A: TGI [1]: > 100 µM; TGI [2]: > 62.3 µM; TGI [3]: > 100 µM; TGI [4]: > 60.1 µM; TGI [10]: > 100 µM; TGI [5]: > 100 µM; TGI [6]: > 100 µM; TGI [7]: > 100 µM; TGI [8]: > 70.3 µM

Q: What does the source list for `CC1SC(c2c(Cl)cccc2Cl)N(NC(=O)c2[nH]c3ccc(F)cc3c2-c2ccccc2)C1=O` (stereo not drawn)?
A: GI50 [1]: 25 µM; TGI [1]: > 100 µM; GI50 [2]: 3.19 µM; TGI [2]: 11.2 µM; GI50 [3]: 3.57 µM; TGI [3]: 17.2 µM; GI50 [4]: 67.5 µM; TGI [4]: > 100 µM; GI50 [10]: 3.7 µM; TGI [10]: 11.9 µM; GI50 [5]: 2.69 µM; TGI [5]: 7.48 µM; GI50 [6]: 2.96 µM; TGI [6]: 10.8 µM; GI50 [8]: 21.9 µM; TGI [8]: > 100 µM; GI50 [9]: 2.05 µM; TGI [9]: 4.8 µM

Q: With `CC1=NCCc2c1[nH]c1cc(O)ccc21` as the compound, how does the TGI [1] read?
A: > 100 µM

Q: What about the TGI [2] of the same compound?
A: > 100 µM

Q: What about the TGI [3] of the same compound?
A: > 100 µM

Q: And the TGI [4]?
A: > 100 µM

Q: And the TGI [10]?
A: > 100 µM

Q: And the TGI [5]?
A: > 100 µM

Q: And the TGI [6]?
A: > 100 µM

Q: What about the TGI [7] of the same compound?
A: > 100 µM

Q: What about the TGI [8] of the same compound?
A: > 100 µM

Q: Which results are given for `Cc1ccc2c(ccc3c[n+]4c5ccccc5ccc4n32)c1`?
A: GI50 [1]: 1.27 µM; TGI [1]: 2.98 µM; GI50 [2]: 0.508 µM; TGI [2]: 10.7 µM; GI50 [3]: 1.2 µM; TGI [3]: 3.32 µM; GI50 [4]: 2.5 µM; TGI [4]: 10.2 µM; GI50 [5]: 0.485 µM; TGI [5]: 2.35 µM; GI50 [6]: 2.08 µM; TGI [6]: 8.77 µM; GI50 [7]: 2.43 µM; TGI [7]: 10.4 µM; GI50 [8]: 0.584 µM; TGI [8]: 14.4 µM; GI50 [9]: > 100 µM; TGI [9]: > 100 µM

Q: Which results are given for `N#CC(C(=O)/C(=N/NC(=O)c1ccccc1O)C(C#N)c1ccc(Cl)cc1)c1ccc(Cl)cc1` (stereo not drawn)?
A: TGI [2]: 29.1 µM; TGI [3]: 27.7 µM; TGI [4]: 53.1 µM; TGI [10]: 31.3 µM; TGI [5]: 86.5 µM; TGI [6]: 24.6 µM; TGI [7]: 31.8 µM; TGI [8]: 79.1 µM

Q: Which results are given for `CC(=O)NNc1nc(C)c(C(=O)NNC(=O)C(=O)Nc2ccccc2C#N)s1`?
A: TGI [1]: > 100 µM; TGI [2]: > 100 µM; TGI [3]: > 100 µM; TGI [4]: > 100 µM; TGI [10]: > 100 µM; TGI [5]: > 100 µM; TGI [6]: > 100 µM; TGI [7]: > 100 µM; TGI [8]: > 100 µM

Q: Which results are given for `C=C1C(=O)O[C@H]2[C@H]1[C@H](OC(=O)/C(C)=C\C)CC(=C)[C@@H]1[C@H](O)[C@H]3O[C@@]3(C)[C@@]12O`?
A: TGI [1]: > 100 µM; TGI [2]: > 100 µM; TGI [3]: > 100 µM; TGI [10]: > 100 µM; TGI [5]: > 100 µM; TGI [6]: > 100 µM; TGI [8]: > 100 µM

Q: What does the source list for `Cc1ccc(C(=O)O/N=C2/CCC/C2=C\c2ccccc2)cc1`?
A: TGI [1]: > 100 µM; TGI [2]: > 100 µM; TGI [3]: > 100 µM; TGI [4]: > 100 µM; TGI [10]: > 100 µM; TGI [5]: > 100 µM; TGI [6]: > 100 µM; TGI [7]: > 100 µM; TGI [8]: > 100 µM

Q: What does the source list for `CN(C(=O)C12C3C4C5C3C1(C(=O)O)C5C42)C(C)(C)C` (stereo not drawn)?
A: TGI [1]: > 100 µM; TGI [2]: 60.8 µM; TGI [3]: > 100 µM; TGI [4]: 32 µM; TGI [10]: > 100 µM; TGI [5]: 72.3 µM; TGI [6]: > 100 µM; TGI [7]: > 100 µM; TGI [8]: > 100 µM

Q: `Cc1ccc(-c2c(N)[n+]([O-])c3ccccc3[n+]2[O-])cc1` was tested. Which TGI [1] did it give?
A: 30.1 µM

Q: What about the TGI [2] of the same compound?
A: 23.3 µM

Q: And the TGI [3]?
A: 20 µM

Q: What about the TGI [4] of the same compound?
A: > 100 µM

Q: And the TGI [10]?
A: 29.3 µM

Q: And the TGI [5]?
A: 34.7 µM

Q: And the TGI [6]?
A: 31.4 µM

Q: And the TGI [7]?
A: 39.6 µM

Q: And the TGI [8]?
A: > 100 µM

Q: How did the TGI [1] turn out when `COc1nc(NC2OCC(OC(C)=O)C(OC(C)=O)C2OC(C)=O)c(N=CC=Nc2c(NC3OCC(OC(C)=O)C(OC(C)=O)C3OC(C)=O)nc(OC)n(C)c2=O)c(=O)n1C` (stereo not drawn) was run?
A: > 100 µM

Q: What about the TGI [2] of the same compound?
A: > 100 µM

Q: And the TGI [3]?
A: > 100 µM

Q: And the TGI [4]?
A: > 100 µM

Q: And the TGI [10]?
A: > 100 µM

Q: And the TGI [5]?
A: > 100 µM

Q: What about the TGI [6] of the same compound?
A: > 100 µM

Q: And the TGI [8]?
A: > 100 µM

Q: Which GI50 [1] does the source give for `CCN(Cc1ccc(F)c(F)c1)c1ccc(CO)c(Cl)c1` here?
A: 5.59 µM

Q: What about the TGI [1] of the same compound?
A: 21.6 µM

Q: And the GI50 [2]?
A: 0.753 µM

Q: And the TGI [2]?
A: 21 µM

Q: What about the GI50 [3] of the same compound?
A: 12.4 µM

Q: What about the TGI [3] of the same compound?
A: 25.1 µM

Q: And the GI50 [4]?
A: 5.42 µM

Q: And the TGI [4]?
A: 29.3 µM

Q: What about the GI50 [10] of the same compound?
A: 13.7 µM

Q: What about the TGI [10] of the same compound?
A: 27.3 µM

Q: And the GI50 [5]?
A: 2.32 µM

Q: What about the TGI [5] of the same compound?
A: 7.48 µM

Q: And the GI50 [6]?
A: 4.52 µM

Q: What about the TGI [6] of the same compound?
A: 19.1 µM

Q: What about the GI50 [8] of the same compound?
A: 1.37 µM

Q: What about the TGI [8] of the same compound?
A: 21.5 µM

Q: What about the GI50 [9] of the same compound?
A: 11.4 µM

Q: And the TGI [9]?
A: 27.4 µM

Q: `COc1c2c(c3c(c1CCC(=O)O)OC(C)(C)C=C3)OC(C)(C)C=C2` was tested. Which TGI [1] did it give?
A: > 100 µM

Q: What about the TGI [2] of the same compound?
A: > 100 µM

Q: What about the TGI [3] of the same compound?
A: > 100 µM

Q: And the TGI [4]?
A: > 100 µM

Q: What about the TGI [5] of the same compound?
A: > 100 µM

Q: What about the TGI [6] of the same compound?
A: > 100 µM

Q: What about the TGI [7] of the same compound?
A: > 100 µM

Q: What about the TGI [8] of the same compound?
A: > 100 µM

Q: What about the TGI [9] of the same compound?
A: > 100 µM
